Measured values taken from patent US20180338980A1, “AROMATIC SULFONAMIDE DERIVATIVES” (BAYER PHARMA AKTIENGESELLSCHAFT, priority 2015, published 2018).
pIC50: −log10 of the molar value. Where “and” joins values, the source holds several entries; their conditions need not be identical. Equal values may be shown once.

Biological target: T1, P2X4 (Homo sapiens, UniProt Q99571)
T1 sequence (Q99571 1-388): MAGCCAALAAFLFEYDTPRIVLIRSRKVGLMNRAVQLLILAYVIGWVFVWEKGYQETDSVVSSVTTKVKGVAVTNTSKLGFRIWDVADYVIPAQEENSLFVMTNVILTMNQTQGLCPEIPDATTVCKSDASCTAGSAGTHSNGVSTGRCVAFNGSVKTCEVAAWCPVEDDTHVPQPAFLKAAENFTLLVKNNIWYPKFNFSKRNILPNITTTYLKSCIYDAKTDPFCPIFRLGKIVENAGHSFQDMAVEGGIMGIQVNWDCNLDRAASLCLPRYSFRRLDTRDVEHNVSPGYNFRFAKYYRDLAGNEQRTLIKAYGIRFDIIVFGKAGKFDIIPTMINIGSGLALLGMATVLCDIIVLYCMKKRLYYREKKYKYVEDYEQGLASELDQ
Experiment: Assay B: human P2X4 receptor cell line, mitochondrial photina luminescence (agonist Bz-ATP at EC50)
Format: cell-based
Set-up: host or cells: HEK 293 (recombinant, constitutively expressing; with mitochondrial photina in Assay B)
Settings: HEK human P2X4 cell line, photina luminescence, agonist Bz-ATP at EC50, average; for Emax: read-out: human P2X4 Assay B avg Efficacy
Summary of the method: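 Recombinant cell line constitutively expressing human P2X4 and mitochondrial photina photoprotein, reconstituted with coelenterazine. Receptor stimulated with Bz-ATP at EC50; calcium influx read immediately as luminescence.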

Row | SMILES | pIC50 | Emax [%]
1 | NS(=O)(=O)c1cc(NC(=O)Cc2ccccc2Cl)ccc1Oc1cccc(-c2nnn[nH]2)c1 [Example 021, 2-(2-Chlorophenyl)-N-{3-sulfamoyl-4-[3-(1H-tetrazol-5-yl)phenoxy]phenyl}acetamide] | 5.41 | 60
2 | N#Cc1cccc(Oc2ccc(NC(=O)Cc3ccccc3)cc2S(N)(=O)=O)c1 [Example 255, N-[4-(3-Cyanophenoxy)-3-sulfamoylphenyl]-2-phenylacetamide] | 6.57 | 64
3 | NS(=O)(=O)c1cc(NC(=O)Cc2ccccc2)ccc1Oc1ccc(F)cc1 [Example 248, N-[4-(4-Fluorophenoxy)-3-sulfamoylphenyl]-2-phenylacetamide] | 5.89 | 62
4 | NS(=O)(=O)c1cc(NC(=O)Cc2ccccc2Cl)ccc1OCC1CCOC1 (stereo not shown) [Example 162, 2-(2-Chlorophenyl)-N-[3-sulfamoyl-4-(tetrahydrofuran-3-ylmethoxy)phenyl]acetamide] | 6.47 | 66
5 | NS(=O)(=O)c1cc(NC(=O)Cc2ccccc2Cl)ccc1OCC1CCCO1 (stereo not shown) [Example 161, 2-(2-Chlorophenyl)-N-[3-sulfamoyl-4-(tetrahydrofuran-2-ylmethoxy)phenyl]acetamide] | 6.08 | 74
6 | NS(=O)(=O)c1cc(NC(=O)Cc2cnc(Cl)cc2Cl)ccc1Oc1cccc(Cl)c1 [Example 111, N-[4-(3-Chlorophenoxy)-3-sulfamoylphenyl]-2-(4,6-dichloropyridin-3-yl)acetamide] | 6.56 | 48
7 | NS(=O)(=O)c1cc(NC(=O)Cc2ccc(Cl)cn2)ccc1Oc1cccc(Cl)c1 [Example 209, N-[4-(3-Chlorophenoxy)-3-sulfamoylphenyl]-2-(5-chloropyridin-2-yl)acetamide] | 6.13 | 64
8 | NS(=O)(=O)c1cc(NC(=O)Cc2ccccc2)ccc1OC1COC1 [Example 215, N-[4-(Oxetan-3-yloxy)-3-sulfamoylphenyl]-2-phenylacetamide] | 5.82 | 68
9 | COCCOc1cccc(CC(=O)Nc2ccc(Oc3cccc(Cl)c3)c(S(N)(=O)=O)c2)c1 [Example 210, N-[4-(3-Chlorophenoxy)-3-sulfamoylphenyl]-2-[3-(2-methoxyethoxy)phenyl]acetamide] | 6.31 | 71
10 | COc1cccc(Oc2ccc(NC(=O)Cc3ccccc3)cc2S(N)(=O)=O)c1 [Example 250, N-[4-(3-Methoxyphenoxy)-3-sulfamoylphenyl]-2-phenylacetamide] | 6.36 | 82
11 | N#Cc1ncc(Cl)cc1Oc1ccc(NC(=O)Cc2ccccc2Cl)cc1S(N)(=O)=O [Example 048, N-{4-[(5-Chloro-2-cyanopyridin-3-yl)oxy]-3-sulfamoylphenyl}-2-(2-chlorophenyl)acetamide] | 4.93 | 73
12 | NS(=O)(=O)c1cc(NC(=O)Cc2ccccc2)ccc1Oc1cncc(Cl)c1 [Example 078, N-{4-[(5-Chloropyridin-3-yl)oxy]-3-sulfamoylphenyl}-2-phenylacetamide] | 6.15 | 86
13 | CC(C)c1ccccc1CC(=O)Nc1ccc(Oc2cccc(Cl)c2)c(S(N)(=O)=O)c1 [Example 087, N-[4-(3-Chlorophenoxy)-3-sulfamoylphenyl]-2-(2-isopropylphenyl)acetamide] | 6.71 | 76
14 | CN1CCCC(Oc2ccc(NC(=O)Cc3ccccc3Cl)cc2S(N)(=O)=O)C1 (stereo not shown) [Example 220, 2-(2-Chlorophenyl)-N-{4-[(1-methylpiperidin-3-yl)oxy]-3-sulfamoylphenyl}acetamide] | 5.42 | 77
15 | N#Cc1cc(F)cc(Oc2ccc(NC(=O)Cc3ccccc3Cl)cc2S(N)(=O)=O)c1 [Example 069, 2-(2-chlorophenyl)-N-[4-(3-cyano-5-fluorophenoxy)-3-sulfamoylphenyl]acetamide] | 5.57 | 71
16 | NS(=O)(=O)c1cc(NC(=O)Cc2ccccc2Cl)ccc1Oc1cccc(N2CCN(C(=O)Cc3ccccc3Cl)CC2)c1 [Example 027, 2-(2-Chlorophenyl)-N-[4-(3-{4-[(2-chlorophenyl)acetyl]piperazin-1-yl}phenoxy)-3-sulfamoylphenyl]acetamide] | 6.11 | 99
17 | COc1ccc(Oc2ccc(NC(=O)Cc3ccccc3Cl)cc2S(N)(=O)=O)cc1 [Example 023, 2-(2-Chlorophenyl)-N-[4-(4-methoxyphenoxy)-3-sulfamoylphenyl]acetamide] | 6.78 | 73

Row | SMILES | pIC50 | Emax [%]
18 | N#CC1(COc2ccc(NC(=O)Cc3ccccc3Cl)cc2S(N)(=O)=O)CCOCC1 [Example 055, 2-(2-Chlorophenyl)-N-{4-[(4-cyanotetrahydro-2H-pyran-4-yl)methoxy]-3-sulfamoylphenyl}acetamide] | 5.94 | 71
19 | NS(=O)(=O)c1cc(NC(=O)Cc2ccc(C(F)(F)F)cc2)ccc1Oc1ccccc1OC(F)(F)F [Example 072, N-{3-Sulfamoyl-4-[2-(trifluoromethoxy)phenoxy]phenyl}-2-[4-(trifluoromethyl)phenyl]acetamide] | 5.53 | 63
20 | CN1CCN=C1c1cccc(Oc2ccc(NC(=O)Cc3ccccc3Cl)cc2S(N)(=O)=O)c1 [Example 041, 2-(2-Chlorophenyl)-N-{4-[3-(1-methyl-4,5-dihydro-1H-imidazol-2-yl)phenoxy]-3-sulfamoylphenyl}acetamide] | 5.47 | 72
21 | Cc1ccc(CC(=O)Nc2ccc(Oc3cccc(Cl)c3)c(S(N)(=O)=O)c2)nc1 [Example 193, N-[4-(3-Chlorophenoxy)-3-sulfamoylphenyl]-2-(5-methylpyridin-2-yl)acetamide] | 5.97 | 79
22 | NS(=O)(=O)c1cc(NC(=O)Cc2ccccc2)ccc1OC1CCOCC1 [Example 206, 2-Phenyl-N-[3-sulfamoyl-4-(tetrahydro-2H-pyran-4-yloxy)phenyl]acetamide] | 4.97 | 88
23 | NS(=O)(=O)c1cc(NC(=O)Cc2ccccc2)ccc1OC1CCC1 [Example 204, N-[4-(Cyclobutyloxy)-3-sulfamoylphenyl]-2-phenylacetamide] | 5.39 | 60
24 | N#Cc1cccc(CC(=O)Nc2ccc(Oc3cccc(Cl)c3)c(S(N)(=O)=O)c2)c1 [Example 226, N-[4-(3-Chlorophenoxy)-3-sulfamoylphenyl]-2-(3-cyanophenyl)acetamide] | 6.31 | 75
25 | N#Cc1cc(Cl)cc(Oc2ccc(NC(=O)Cc3ccccc3Cl)cc2S(N)(=O)=O)c1 [Example 001, N-[4-(3-Chloro-5-cyanophenoxy)-3-sulfamoylphenyl]-2-(2-chlorophenyl)acetamide] | 5.11 | 61
26 | NS(=O)(=O)c1cc(NC(=O)Cc2c(Cl)cc(C(F)(F)F)cc2Cl)ccc1Oc1ccc(Cl)cc1 [Example 242, N-[4-(4-Chlorophenoxy)-3-sulfamoylphenyl]-2-[2,6-dichloro-4-(trifluoromethyl)phenyl]acetamide] | 5.54 and < 4.80 | 71
27 | NS(=O)(=O)c1cc(NC(=O)Cc2c(Cl)cc(C(F)(F)F)c(F)c2F)ccc1Oc1cccc(Cl)c1 [Example 115, 2-[6-Chloro-2,3-difluoro-4-(trifluoromethyl)phenyl]-N-[4-(3-chlorophenoxy)-3-sulfamoylphenyl]acetamide] | 5.85 | 54
28 | CN1CCC(Oc2ccc(NC(=O)Cc3ccccc3Cl)cc2S(N)(=O)=O)C1 (stereo not shown) [Example 222, 2-(2-Chlorophenyl)-N-{4-[(1-methylpyrrolidin-3-yl)oxy]-3-sulfamoylphenyl}acetamide] | 5.07 and 5.09 and < 4.80 | 70
29 | NS(=O)(=O)c1cc(NC(=O)Cc2ccc(C(F)(F)F)cc2)ccc1Oc1ccccc1Cl [Example 073, N-[4-(2-Chlorophenoxy)-3-sulfamoylphenyl]-2-[4-(trifluoromethyl)phenyl]acetamide] | 5.47 | 65
30 | Cn1nccc1Oc1ccc(NC(=O)Cc2ccccc2Cl)cc1S(N)(=O)=O [Example 237, 2-(2-Chlorophenyl)-N-{4-[(1-methyl-1H-pyrazol-5-yl)oxy]-3-sulfamoylphenyl}acetamide] | 6.63 | 59
31 | NS(=O)(=O)c1cc(NC(=O)Cc2ccccc2Cl)ccc1Oc1cncnc1 [Example 019, 2-(2-Chlorophenyl)-N-[4-(pyrimidin-5-yloxy)-3-sulfamoylphenyl]acetamide] | 5.85 | 80
32 | NS(=O)(=O)c1cc(NC(=O)Cc2ccccc2)ccc1OC1CCCC1 [Example 217, N-[4-(Cyclopentyloxy)-3-sulfamoylphenyl]-2-phenylacetamide] | 5.39 | 67
33 | Cc1cc(Oc2cccc(Cl)c2)c(S(N)(=O)=O)cc1NC(=O)Cc1ccccc1Cl [Example 240, N-[4-(3-Chlorophenoxy)-2-methyl-5-sulfamoylphenyl]-2-(2-chlorophenyl)acetamide] | 5.52 | 86
34 | NS(=O)(=O)c1cc(NC(=O)Cc2ccccc2F)ccc1Oc1ccc(Cl)cc1 [Example 230, N-[4-(4-Chlorophenoxy)-3-sulfamoylphenyl]-2-(2-fluorophenyl)acetamide] | – | 50
